Tests used:
[1] = target: T1, PAR4 (Homo sapiens (Human), UniProt Q96RI0); test: FLIPR assay in PAR4-expressing HEK293 cells (PAR4 antagonist activity, calcium mobilization); type: cell-based; conditions: FLIPR assay as described in Example A
In short: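 Calcium-flux antagonist readout: compounds preincubated 30 min at room temperature with PAR4-transfected HEK293 cells in HBSS with 10 mM HEPES (0.67% DMSO final), then agonist peptide added. Agonist activity checked on compound addition; cells carry endogenous PAR1.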

[2] = target: T1, PAR4; test: Gamma thrombin induced platelet aggregation assay in PRP (PRP assay); type: cell-based
From the text: The compounds of the current invention can be tested in vitro for their ability to inhibit platelet aggregation induced by gamma-thrombin as shown in Example C. Gamma-thrombin, a proteolytic product of alpha-thrombin which no longer interacts with PAR1, selectively cleaves and activates PAR4 (Soslau, G. et al., “Unique pathway of thrombin-induced platelet aggregation mediated by glycoprotein Ib”, J. Biol. Chem., 276:21173-21183 (2001)). Platelet aggregation can be monitored in a 96-well microplate aggregation assay format or using standard platelet aggregometer. The aggregation assay can also be employed to test the selectivity of the compound for inhibiting platelet aggregation induced by PAR4 agonist peptides, PAR1 agonist peptide, ADP, or thromboxane analogue U46619.
The platelet rich plasma was isolated by centrifugation at 170 g for 14 minutes.
The ability of the compounds of the current invention to inhibit platelet aggregation induced by gamma-thrombin was tested in a 96-well microplate aggregation assay format. Briefly, PRP or washed platelet suspension (100 μl) was pre-incubated for 5 minutes at room temperature with varying concentrations of compounds. Aggregation was initiated by ˜10-50 nM gamma thrombin (Haematologic Technologies, Essex Junction, Vt.), which was titrated daily to achieve 80% platelet aggregation. Refludan at 1 U/mL (Berlex, Montville, N.J.) was added to the gamma thrombin sample to prevent PAR1 activation induced by residual alpha-thrombin contamination. The plate was then placed into a 37° C. Molecular Devices (Sunnyvale, Calif.) SPECTRAMAX® Plus Plate Reader. […] Data was collected with SOFTMAX® 4.71 software. The plate also included an untreated control sample which served as ODmax, while buffer containing no platelets was the ODmin. Platelet aggregation was determined by subtracting the ODmax from the ODmin for the 100% aggregation value. In experimental samples, the observed transmission was subtracted from the minimum value and then compared to the 100% aggregation value to determine the percentage aggregation. IC50 values are determined using Excel Fit software.
As indicated above, the PRP assay, an in vitro assay, measures the PAR4 antagonist activity of compounds tested as described in Example C.

T1 sequence (Q96RI0 18-385): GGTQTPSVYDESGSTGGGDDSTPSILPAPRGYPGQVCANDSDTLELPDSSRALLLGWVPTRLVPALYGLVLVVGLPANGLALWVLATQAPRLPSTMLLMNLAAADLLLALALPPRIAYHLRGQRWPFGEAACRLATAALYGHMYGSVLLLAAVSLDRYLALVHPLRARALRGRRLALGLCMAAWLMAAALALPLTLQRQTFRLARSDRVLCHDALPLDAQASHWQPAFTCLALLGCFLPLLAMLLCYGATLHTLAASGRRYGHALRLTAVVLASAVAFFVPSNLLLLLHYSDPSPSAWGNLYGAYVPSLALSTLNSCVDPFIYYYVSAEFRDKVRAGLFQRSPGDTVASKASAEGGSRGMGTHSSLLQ

Structure (SMILES)	IC50 [1]	IC50 [2]
COc1nn2cc(-c3nc4ccccc4s3)nc2s1 [Example 5, 2-(2-Methoxyimidazo[2,1-b][1,3,4]thiadiazol-6-yl)benzo[d]thiazole]	351 nM	> 30000 nM
COc1cc(OCc2cccc(OCc3ccccc3C)c2)c2cc(-c3cn4nc(OC)sc4n3)oc2c1 [Example 363]	2.42 nM	38.3 nM
COc1cc(OCc2cccc(OCc3ccccn3)c2)c2cc(-c3cn4nc(OC)sc4n3)oc2c1 [Example 319]	9.2 nM	124 nM
COc1cc(OCc2cccc(OCc3ccccc3)c2)c2cc(-c3cn4nc([C@H](C)F)sc4n3)oc2c1 [Example 407]	1.12 nM	462 nM
COc1ccc(COc2cccc(COc3cc(OC)cc4oc(-c5cn6nc(OC)sc6n5)cc34)c2)cc1 [Example 392]	1.44 nM	105 nM
COc1nn2cc(-c3nc4c(C)cccc4o3)nc2s1 [Example 129]	32 nM	> 30000 nM
COc1cc(OCc2cccc(OCc3ccc(F)cc3)c2)c2cc(-c3cn4nc(OC)sc4n3)oc2c1 [Example 346]	1.68 nM	147 nM
CCc1nn2cc(-c3nc4ccc(OC)cc4o3)nc2s1 [Example 39]	220 nM	> 30000 nM
COc1cc(OCc2cc(F)cc(OCc3ccccc3)c2)c2cc(-c3cn4nc(OC)sc4n3)oc2c1 [Example 350]	0.76 nM	85.7 nM
COc1cc(OCc2cccc(OC(=O)c3ccccc3)c2)c2cc(-c3cn4nc(OC)sc4n3)oc2c1 [Example 355]	1.65 nM	33.3 nM
COc1cc(OCc2cccc(OCc3ccccc3)c2)c2cc(-c3cn4nc(C(C)(F)F)sc4n3)oc2c1 [Example 347]	2.74 nM	579 nM
COc1cc(OCc2cccc(OCc3cc(OC(C)C)cc(OC(C)C)c3)c2)c2cc(-c3cn4nc(OC)sc4n3)oc2c1 [Example 371]	7.56 nM	6910 nM
CSc1nn2cc(-c3cc4cccc(C)c4o3)nc2s1 [Example 22]	217 nM	8760 nM
COc1cc(OCc2ccc(F)cc2)c2cc(-c3cn4nc(OC)sc4n3)oc2c1 [Example 303]	5.68 nM	3190 nM
CCOc1cccc2cc(-c3cn4nc(OC)sc4n3)oc12 [Example 34]	149 nM	> 30000 nM
COc1cc(OCc2cccc(OCc3cc(Cl)cc(Cl)c3)c2)c2cc(-c3cn4nc(OC)sc4n3)oc2c1 [Example 376]	7.27 nM	677 nM
COc1cc(OCc2cccc(OCc3cccc(C)n3)c2)c2cc(-c3cn4nc(OC)sc4n3)oc2c1 [Example 307]	9.23 nM	101 nM
COc1nn2cc(-c3cc4ccc(OC)c(OC)c4o3)nc2s1 [Example 10, 6-(6,7-Dimethoxybenzofuran-2-yl)-2-methoxyimidazo[2,1-b][1,3,4]thiadiazole]	1800 nM	> 30000 nM
COCCOc1cccc2oc(-c3cn4nc(Br)sc4n3)cc12 [Example 252]	121 nM	> 30000 nM
COc1nn2cc(-c3nc4cc(F)ccc4o3)nc2s1 [Example 135]	49.6 nM	> 30000 nM
COc1cc(OCc2ccc(F)cc2)c2cc(-c3cn4nc(Br)sc4n3)oc2c1 [Example 302]	195 nM	> 30000 nM

Structure (SMILES)	IC50 [1]	IC50 [2]
COc1cccc2cc(-c3cn4nc(SC)sc4n3)oc12 [Example 14]	8.68 nM	9440 nM
COc1nn2cc(-c3cc4c(F)cc(OCc5cccc(OCc6ccccc6)c5)cc4o3)nc2s1 [Example 428]	4.81 nM	73.2 nM
COc1cc(OCc2cccc(OCc3ccccc3CCc3ccccc3)c2)c2cc(-c3cn4nc(OC)sc4n3)oc2c1 [Example 364]	10.5 nM	5820 nM
COc1cc(OCc2cccc(OCc3cc(F)cc(C(F)(F)F)c3)c2)c2cc(-c3cn4nc(OC)sc4n3)oc2c1 [Example 356]	1.66 nM	109 nM
COc1cc(OCc2cccc(OCc3c(F)cccc3Cl)c2)c2cc(-c3cn4nc(OC)sc4n3)oc2c1 [Example 370]	5.3 nM	151 nM
COc1cc(OCc2cccc(OCc3cccc(F)c3)c2)c2cc(-c3cn4nc(OC)sc4n3)oc2c1 [Example 327]		37.9 nM
CCOc1nn2cc(-c3cc4ccccc4o3)nc2s1 [Example 26]		> 30000 nM
COc1cc(OCc2ccccc2)c2cc(-c3cn4nc(C(C)(F)F)sc4n3)oc2c1 [Example 265]	28 nM	
COc1cc(OCc2cccc(OCc3ccc(I)cc3)c2)c2cc(-c3cn4nc(OC)sc4n3)oc2c1 [Example 391]	3.03 nM	
Brc1nn2cc(-c3cc4c(OCc5ccccc5)cc(OCc5ccccc5)cc4o3)nc2s1 [Example 254]	604 nM	
COc1cc2oc(-c3cn4nc(Br)sc4n3)cc2cc1Cl [Example 200, 2-Bromo-6-(5-chloro-6-methoxybenzofuran-2-yl)imidazo[2,1-b][1,3,4]thiadiazole]	8.63 nM	
COc1cc(OCc2ccccc2)c2cc(-c3cn4nc(SC)sc4n3)oc2c1 [Example 227-228]	4.05 nM	
CSc1nn2cc(-c3nc4c(OCC5CC5)cccc4o3)nc2s1 [Example 175]	41.3 nM	
CCc1nn2cc(-c3nc4ccc(OCCCc5ccccc5)cc4o3)nc2s1 [Example 78]	576 nM	
COc1nn2cc(-c3cc4c(OCc5cccc(OCc6ccccc6)c5)cc(C#N)cc4o3)nc2s1 [Example 417]	5.02 nM	
COc1nn2cc(-c3cc4c(Cl)cccc4o3)nc2s1 [Example 109]	3.1 nM	
CSc1nn2cc(-c3nc4ccc(C)cc4s3)nc2s1 [Example 190]	204 nM	
COc1cc(Br)cc2cc(-c3cn4nc(Br)sc4n3)oc12 [Example 286]	276 nM	
CSc1nn2cc(-c3nc4c(C)cccc4o3)nc2s1 [Example 128]	17.1 nM	
CSc1nn2cc(-c3nc4ccc(OCc5ccc(C(F)(F)F)cc5)cc4o3)nc2s1 [Example 153]	345 nM	
CCCCOc1cccc2cc(-c3cn4nc(CC)sc4n3)oc12 [Example 64]	1590 nM	

Structure (SMILES)	IC50 [1]	IC50 [2]
COc1nn2cc(-c3cc4c(OCc5cccc(OCc6ccccc6)c5)cc(Cl)cc4o3)nc2s1 [Example 414, 6-(4-((3-(Benzyloxy)benzyl)oxy)-6-chlorobenzofuran-2-yl)-2-methoxyimidazo[2,1-b][1,3,4]thiadiazole]	5.17 nM	
CSc1nn2cc(-c3cc4ccccc4s3)nc2s1 [Example 17]		> 30000 nM
CSc1nn2cc(-c3nc4cc(Cl)ccc4o3)nc2s1 [Example 125]	206 nM	
COc1nn2cc(-c3cc4c(OCc5ccc(F)cc5)cccc4o3)nc2s1 [Example 266]	43.1 nM	
COc1cc2oc(-c3cn4nc(SC)sc4n3)cc2cc1Br [Example 261]	4.53 nM	
CC(F)(F)c1nn2cc(-c3nc4ccccc4s3)nc2s1 [Example 185, 2-(2-(1,1-Difluoroethyl)imidazo[2,1-b][1,3,4]thiadiazol-6-yl)benzo[d]thiazole]	626 nM	
COc1nn2cc(-c3cc4cccc(OC)c4o3)nc2s1 [Example 9, 2-Methoxy-6-(7-methoxybenzofuran-2-yl)imidazo[2,1-b][1,3,4]thiadiazole]	224 nM	
CSc1nn2cc(-c3nc4ccc(Cl)cc4s3)nc2s1 [Example 188]	920 nM	
COc1nn2cc(-c3nc4cc(F)c(F)cc4o3)nc2s1 [Example 138]	470 nM	
CCc1nn2cc(-c3nc4ccc(OC(C)C)cc4o3)nc2s1 [Example 87]	450 nM	
COc1cc(OC[C@H]2CCCN2C(=O)OC(C)(C)C)c2cc(-c3cn4nc(OC)sc4n3)oc2c1 [Example 340]	2.21 nM	
CCc1nn2cc(-c3nc4ccc(OCc5ccc(OC)cc5)cc4o3)nc2s1 [Example 84]	101 nM	
CSc1nn2cc(-c3nc4cc(C)c(C)cc4o3)nc2s1 [Example 133]	19.7 nM	
CCc1nn2cc(-c3nc4ccc(OCc5ccc(Cl)cc5)cc4o3)nc2s1 [Example 83]	1010 nM	
Cc1cccc2cc(-c3cn4nc(C(C)(F)F)sc4n3)oc12 [Example 234]	113 nM	
CC(F)c1nn2cc(-c3cc4c(OCc5ccccc5)cccc4o3)nc2s1 (stereo not shown) [Example 251]	230 nM	
Cc1cc(C(F)(F)F)c2cc(-c3cn4nc(Br)sc4n3)oc2n1 [Example 306]	1100 nM	
CSc1nn2cc(-c3cc4c(OCC#N)cccc4o3)nc2s1 [Example 248]	145 nM	
COc1cc(COc2cccc(COc3cc(OC)cc4oc(-c5cn6nc(OC)sc6n5)cc34)c2)cc(OC)c1 [Example 390]	1.6 nM	
COc1cc(OCc2cccc(OCc3ccc(C)cc3C)c2)c2cc(-c3cn4nc(OC)sc4n3)oc2c1 [Example 312]	2.13 nM	

Source: patent US9862730B2, “Imidazothiadiazole derivatives as protease activated receptor 4 (PAR4) inhibitors for treating platelet aggregation” (BRISTOL-MYERS SQUIBB COMPANY, priority 2012, dated 2018)
